Assay results as given in the supplement of paper PMC4862054.
“And” between values parts separate entries of the source, which are not always exact repeats. Equal values may be shown once.

Tests used:
Settings in all cases: incubation time: 72 h
BT-474 [1] = test: drug sensitivity score (DSS), CellTiter-Blue viability (DSS (AUC-based score)); higher = stronger viability inhibition; extreme values may be limits of the assay
Protocol: (§1)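 DSRT with the CellTiter-Blue (resazurin reduction) viability readout, fluorescence 560/590 nm, 72 h incubation. Plates were normalised to DMSO and benzethonium chloride controls. DSS is computed from the area under the fitted dose-response curve (5 or 9 concentrations).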

BT-549 [2] = test: as above
Protocol: as §1

CAL-120 [3] = test: as above
Protocol: as §1

CAL-148 [4] = test: as above
Protocol: as §1

CAL-51 = test: as above
Protocol: as §1

CAL-85-1 = test: as above
Protocol: as §1

DU-4475 [5] = test: as above
Protocol: as §1

HCC1143 = test: as above
Protocol: as §1

HCC1599 [6] = test: as above
Protocol: as §1

HCC1937 = test: as above
Protocol: as §1

HDQ-P1 = test: as above
Protocol: as §1

Hs578T = test: as above
Protocol: as §1

MDA-MB-231 [7] = test: as above
Protocol: as §1

MDA-MB-436 [8] = test: as above
Protocol: as §1

MDA-MB-468 [9] = test: as above
Protocol: as §1

MFM-223 = test: as above
Protocol: as §1

SK-BR-3 = test: as above
Protocol: as §1

BT-474 [10] = test: normalised response (% of control), CellTox Green; higher = less cell death (100 = DMSO, 0 = benzethonium chloride kill control)
Method in brief: (§2)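 Plates were normalised with 0.1 % DMSO as 100 and a positive kill control as 0. Breast cancer cell lines in 20 µl suspension had been seeded into 384-well plates with compound at 5 concentrations in 10-fold steps over a compound-specific 10,000-fold range, incubated 72 h, and read for CellTox Green fluorescence (485/520 nm) followed by CellTiter-Glo luminescence. Each value is the normalised signal at a single concentration.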

BT-549 [11] = test: as above
Method in brief: as §2

CAL-120 [12] = test: as above
Method in brief: as §2

CAL-148 [13] = test: as above
Method in brief: as §2

DU-4475 [14] = test: as above
Method in brief: as §2

HCC1599 [15] = test: as above
Method in brief: as §2

MDA-MB-231 [16] = test: as above
Method in brief: as §2

MDA-MB-436 [17] = test: as above
Method in brief: as §2

MDA-MB-453 = test: as above
Method in brief: as §2

MDA-MB-468 [18] = test: as above
Method in brief: as §2

| SMILES | drug sensitivity score (BT-474 [1]) | drug sensitivity score (BT-549 [2]) | drug sensitivity score (CAL-120 [3]) | drug sensitivity score (CAL-148 [4]) | drug sensitivity score (CAL-51) | drug sensitivity score (CAL-85-1) | drug sensitivity score (DU-4475 [5]) | drug sensitivity score (HCC1143) | drug sensitivity score (HCC1599 [6]) | drug sensitivity score (HCC1937) | drug sensitivity score (HDQ-P1) | drug sensitivity score (Hs578T) | drug sensitivity score (MDA-MB-231 [7]) | drug sensitivity score (MDA-MB-436 [8]) | drug sensitivity score (MDA-MB-468 [9]) | drug sensitivity score (MFM-223) | drug sensitivity score (SK-BR-3) | normalised response (BT-474 [10]) [%] | normalised response (BT-549 [11]) [%] | normalised response (CAL-120 [12]) [%] | normalised response (CAL-148 [13]) [%] | normalised response (DU-4475 [14]) [%] | normalised response (HCC1599 [15]) [%] | normalised response (MDA-MB-231 [16]) [%] | normalised response (MDA-MB-436 [17]) [%] | normalised response (MDA-MB-453) [%] | normalised response (MDA-MB-468 [18]) [%] |
| --- | --- | --- | --- | --- | --- | --- | --- | --- | --- | --- | --- | --- | --- | --- | --- | --- | --- | --- | --- | --- | --- | --- | --- | --- | --- | --- | --- |
| COc1ccc(S(=O)(=O)Nc2cccnc2Nc2ccc(O)cc2)cc1 [ABT-751] | 7 | 6.81 | 14.5 | 10.7 | 11.8 | 13.7 | 10.1 | 9.7 | 5.55 | 14.9 | 12 | 17.3 | 14.3 | 10.4 | 8.8 | 8.15 | 18.5 | – | – | – | – | – | – | – | – | – | – |
| Cc1cc(Nc2nc(N[C@@H](C)c3ncc(F)cn3)ncc2Cl)[nH]n1 [AZD1480] | 0 | 0 | 0 | 0 | 0 | 0 | 0.841 | 0 | 1.53 | 0 | 0 | 0 | 0 | 0 | 0 | 7.5 | 0 | – | – | – | – | – | – | – | – | – | – |
| CNC(=O)c1ccccc1Sc1ccc2c(/C=C/c3ccccn3)n[nH]c2c1 [Axitinib] | 0 | 4.37 | 0 | 5.17 | 6.1 | 4.41 | 6.24 | 2.06 | 0 | 5.79 | 4.73 | 0 | 2.62 | 13.7 | 1.45 | 11.4 | 0 | – | – | – | – | – | – | – | – | – | – |
| CC(O)(CS(=O)(=O)c1ccc(F)cc1)C(=O)Nc1ccc(C#N)c(C(F)(F)F)c1 (stereo not given) [Bicalutamide] | 0 | 0 | 0 | 0 | 0 | 0 | 0 | 0 | 0 | 0 | 0 | 0 | 0 | 0 | 4.86e-06 | 0 | 0 | – | – | – | – | – | – | – | – | – | – |
| CCNC(=O)CCC/C=C\C[C@@H]1[C@@H](/C=C/[C@@H](O)CCc2ccccc2)[C@H](O)C[C@@H]1O [Bimatoprost] | 0 | 0 | 0 | 0 | 0 | 0 | 0 | 0 | 0 | 0 | 0 | 0 | 0 | 0 | 0 | 0 | 0 | – | – | – | – | – | – | – | – | – | – |
| COc1cc(Nc2c(C#N)cnc3cc(OCCCN4CCN(C)CC4)c(OC)cc23)c(Cl)cc1Cl [Bosutinib] | 5.59 | 5.28 | 8.36 | 7.34 | 3.35 | 5.55 | 2.82 | 5.05 | 3.68 | 6.37 | 6.6 | 3.1 | 6.93 | 4.98 | 5.03 | 4.68 | 7.78 | – | – | – | – | – | – | – | – | – | – |
| CCN(CC)CCCC(C)Nc1ccnc2cc(Cl)ccc12 (stereo not given) [Chloroquine] | 0 | 0 | 0 | 0 | 0 | 0 | 0 | 0 | 0 | 0 | 0 | 0 | 0 | 0 | 0 | 0 | 0 | – | – | – | – | – | – | – | – | – | – |
| Cn1cc(C2=C(c3cn(C4CCN(Cc5ccccn5)CC4)c4ccccc34)C(=O)NC2=O)c2ccccc21 [Enzastaurin] | 2.68 | 6.55 | 0 | 5.06 | 0 | 0 | 0 | 5.14 | 0 | 5.39 | 1.6 | 9.93 | 0 | 9.96 | 0 | 6.5 | 10.1 | – | – | – | – | – | – | – | – | – | – |
| CC(C)(C)NC(=O)[C@H]1CC[C@H]2[C@@H]3CC[C@H]4NC(=O)C=C[C@]4(C)[C@H]3CC[C@]12C [Finasteride] | 0 | 0 | 0 | 1.45 | 1.63 | 0 | 3.01 | 0 | 0 | 0 | 0 | 0 | 0 | 0 | 0 | 1.79 | 0 | – | – | – | – | – | – | – | – | – | – |
| Nc1ccn([C@@H]2O[C@H](CO)[C@@H](O)C2(F)F)c(=O)n1 [Gemcitabine] | 0 | 6.97 | 14.7 | 16.9 | 17.6 | 12 | 10.7 | 13.2 | 7.74 | 16.2 | 0 | 7.89 | 7.17 | 9.62 | 16.1 | 2.55 | 13.4 | – | – | – | – | – | – | – | – | – | – |
| CC(C)C[C@H](NC(=O)[C@@H](COC(C)(C)C)NC(=O)[C@H](Cc1ccc(O)cc1)NC(=O)[C@H](CO)NC(=O)[C@H](Cc1c[nH]c2ccccc12)NC(=O)[C@H](Cc1cnc[nH]1)NC(=O)[C@@H]1CCC(=O)N1)C(=O)N[C@@H](CCCNC(=N)N)C(=O)N1CCC[C@H]1C(=O)NNC(N)=O [Goserelin] | 0 | 0 | 0 | 0 | 0 | 0 | 0 | 0 | 0 | 0 | 0 | 0 | 0 | 0 | 0 | 0 | 0 | – | – | – | – | – | – | – | – | – | – |
| CC(=O)[C@]1(O)Cc2c(O)c3c(c(O)c2[C@@H](O[C@H]2C[C@H](N)[C@H](O)[C@H](C)O2)C1)C(=O)c1ccccc1C3=O [Idarubicin] | 10.2 | 11.5 | 14.5 | 19.7 | 21 | 6.93 | 18.3 | 8.64 | 0.917 | 21.4 | 6.33 | 11.4 | 11.9 | 9.77 | 14.2 | 6 | 17.7 | – | – | – | – | – | – | – | – | – | – |
| CC1(C)CCC(c2ccc(Cl)cc2)=C(CN2CCN(c3ccc(C(=O)NS(=O)(=O)c4ccc(N[C@H](CCN5CCOCC5)CSc5ccccc5)c(S(=O)(=O)C(F)(F)F)c4)cc3)CC2)C1 [Navitoclax] (1000 nM) | – | – | – | – | – | – | – | – | – | – | – | – | – | – | – | – | – | 89.1 | 95.6 | 50.3 | 71.7 | 90.2 | 89.8 | -19.3 | 101 | 99.8 | 84.7 |
| CC1(C)CCC(c2ccc(Cl)cc2)=C(CN2CCN(c3ccc(C(=O)NS(=O)(=O)c4ccc(N[C@H](CCN5CCOCC5)CSc5ccccc5)c(S(=O)(=O)C(F)(F)F)c4)cc3)CC2)C1 [Navitoclax] (10000 nM) | – | – | – | – | – | – | – | – | – | – | – | – | – | – | – | – | – | 70.3 | 97.3 | 13.6 | 74.6 | 89.8 | 103 | -60.4 | 64.8 | 86.5 | 24.9 |
| Cc1cn(-c2cc(NC(=O)c3ccc(C)c(Nc4nccc(-c5cccnc5)n4)c3)cc(C(F)(F)F)c2)cn1 [Nilotinib] (1000 nM) | – | – | – | – | – | – | – | – | – | – | – | – | – | – | – | – | – | 88.8 | 85.9 | 97 | 106 | 101 | 101 | 68.5 | 82.2 | 106 | 111 |
| Cc1cn(-c2cc(NC(=O)c3ccc(C)c(Nc4nccc(-c5cccnc5)n4)c3)cc(C(F)(F)F)c2)cn1 [Nilotinib] (10000 nM) | – | – | – | – | – | – | – | – | – | – | – | – | – | – | – | – | – | 100 | 80.7 | 101 | 98.3 | 103 | 105 | 84.3 | 108 | 102 | 117 |
| O=C(CCCCCCC(=O)Nc1ccccc1)NO [Vorinostat] | 6.34 and 8.1 | 4.56 and 4.64 | 9.7 and 7.55 | 5.26 and 4.8 | 0.68 and 0.982 | 4.59 and 3.98 | – | 4.79 and 6.75 | 6.85 and 2.71 | 6.22 and 7.75 | 3.82 and 8.64 | 5.57 and 5.8 | 5.31 and 5.33 | 8.55 and 3.68 | 6.66 and 5.72 | 7.1 and 6.77 | 14.2 and 12.8 | – | – | – | – | – | – | – | – | – | – |
| O=C(CCCCCCC(=O)Nc1ccccc1)NO [Vorinostat] (1000 nM) | – | – | – | – | – | – | – | – | – | – | – | – | – | – | – | – | – | 96.8 | 115 | 95.1 | 100 | 94.5 | 91.8 | 83.2 | 73.5 | 93.9 | 103 |
| O=C(CCCCCCC(=O)Nc1ccccc1)NO [Vorinostat] (10000 nM) | – | – | – | – | – | – | – | – | – | – | – | – | – | – | – | – | – | 32.6 | 74.8 | 36.3 | 45.5 | 76 | 81.9 | -55.1 | 77.5 | 82.7 | 25.7 |
